The values below are quoted from earlier work in patent US9662296B2, “Pharmaceutical composition comprising bicarbonate salt, and use thereof as a medicament in the treatment and/or prevention of urinary lithiases and related diseases” (ADVICENNE, priority 2010, dated 2017).

For the data set the following is noted: high doses (30 to 40 grams per day).

In the case of `O=C([O-])O.[K+]` [potassium bicarbonate], the adverse manifestations entry was “manifestations of metabolic alkalosis or digestive disorders, mainly diarrhoea”.
`O=C([O-])O.[Na+]` [sodium bicarbonate]: the adverse manifestations result was “manifestations of metabolic alkalosis or digestive disorders, mainly diarrhoea”.
